We go through two molecules from PMC8667043, “First-in-Class Inhibitors of the Ribosomal Oxygenase MINA53” (Journal of Medicinal Chemistry, 2021).

What all share (assay type): cell-based, human
What all share (settings): 50 μM, 48 h

Assay [1] relates to KDM5. In words: Immunofluorescence of histone methyl mark H3K4me3 in U-87MG cells. On the procedure: (§1) For immunofluorescence (IF) analysis, 50 × 10^4 U-87MG cells were grown on sterile coverslips. Twenty-four hours after plating, the cells were treated with the different compounds (IOX-1 at 100 μM, GSK-J4 at 10 μM, CPI-455 at 25 μM, and both MINA53 inhibitors 9 and 10 at 50 μM) for 48 h. IF staining for different trimethylated lysine residues of histone H3 ([…]) were carried out on PFA-fixed cells blocked with 20% goat serum in PBS (1 h, RT) and incubated overnight at 4 °C with primary rabbit polyclonal antibodies against H3K4me3 (Cell Signaling, C42D8, 1:400), H3K9me3 (Cell Signaling, D4W1U, 1:400), and H3K27me3 (Cell Signaling, C36B11, 1:400). Primary antibodies were detected using rabbit anti-IgG secondary antibodies conjugated with either Cy3 (Jackson Immunoresearch 711-165-152). DNA was stained using 0.05 μg/mL 4′,6-diamidino-2-phenylindole (DAPI), and after washing, the coverslips were mounted in Vectashield mounting media. […]
(§2) For quantification of fluorescence intensity signals, images of untreated or treated cells were analyzed and processed using open-source Cell Profiler 4.1.3 image analysis software (https://cellprofiler.org/) to measure fluorescence-integrated intensity values for antibody-binding relating to individual cells. […]

Assay [2] has as its system KDM4. In words: Immunofluorescence of histone methyl mark H3K9me3 in U-87MG cells. The method, then:
as §1, §2

Assay [3] relates to KDM6. In words: Immunofluorescence of histone methyl mark H3K27me3 in U-87MG cells. On the procedure:
as §1, §2

Consider `O=C(O)c1cnc(SCCCc2ccccc2)[nH]c1=O` [compound 10, 2-((3-Phenylpropyl)thio)-3,4-dihydro-4-oxopyrimidine-5-carboxylic Acid], for which, in assay [1], the “level of histone methyl mark H3K4me3 (KDM5 selectivity)” value was “did not observe any evidence for an increase”. Further, in assay [2], the “level of histone methyl mark H3K9me3 (KDM4 selectivity)” value is on record as “did not observe any evidence for an increase”. Moreover, the “level of histone methyl mark H3K27me3 (KDM6 selectivity)” value in assay [3] is reported as “did not observe any evidence for an increase”.

For `O=C(O)c1cnc(SCCc2ccccc2)[nH]c1=O` [compound 9, 2-(Phenethylthio)-3,4-dihydro-4-oxopyrimidine-5-carboxylic Acid], in assay [1], the “level of histone methyl mark H3K4me3 (KDM5 selectivity)” value was “did not observe any evidence for an increase”. Moreover, the “level of histone methyl mark H3K9me3 (KDM4 selectivity)” value in assay [2] is given as “did not observe any evidence for an increase”. Besides, in assay [3], the “level of histone methyl mark H3K27me3 (KDM6 selectivity)” value was “did not observe any evidence for an increase”.
